According to ChEMBL document CHEMBL1137903 (Bioorg Med Chem Lett, 2004):

Legend:
[1] = target: T1, Melatonin receptor type 1B (Homo sapiens, UniProt P49286); experiment: Inhibition of 2-[125I]iodomelatonin binding to membrane preparations of NIH3T3 cells stably expressing human Melatonin receptor type 1B; format: cell membranes
T1 sequence (P49286 whole entry): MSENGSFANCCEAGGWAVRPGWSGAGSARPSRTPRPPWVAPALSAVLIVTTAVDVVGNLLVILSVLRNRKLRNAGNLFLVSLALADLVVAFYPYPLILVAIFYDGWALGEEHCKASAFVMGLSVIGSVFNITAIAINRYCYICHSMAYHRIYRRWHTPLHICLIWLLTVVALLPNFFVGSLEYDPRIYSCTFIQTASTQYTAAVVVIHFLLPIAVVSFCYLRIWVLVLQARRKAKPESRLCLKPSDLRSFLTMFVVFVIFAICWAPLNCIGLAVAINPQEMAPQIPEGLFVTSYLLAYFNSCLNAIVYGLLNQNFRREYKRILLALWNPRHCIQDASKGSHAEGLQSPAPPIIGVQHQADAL

[2] = target: T2, Melatonin receptor type 1A (Homo sapiens, UniProt P48039); experiment: Inhibition of 2-[125I]iodomelatonin binding to membrane preparations of NIH3T3 cells stably expressing human Melatonin receptor type 1A; format: cell membranes
[3] = target: T2, Melatonin receptor type 1A; experiment: Intrinsic activity towards human Melatonin receptor type 1A relative to melatonin
[4] = target: T2, Melatonin receptor type 1A; experiment: Agonist activity towards human Melatonin receptor type 1A was determined by its ability to inhibit forskolin stimulated cAMP accumulation; format: functional
[5] = target: T1, Melatonin receptor type 1B; experiment: Agonist activity towards human Melatonin receptor type 1B was determined by its ability to inhibit forskolin stimulated cAMP accumulation; format: functional
[6] = Half-life in rats after the administration of 1 mg/kg i.v. dose; format: ADME, organism-based; set-up: dose 1 mg/kg, route intravenous; conditions: rat, in vivo, iv
[7] = Clearance in rats after the administration of 1 mg/kg i.v. dose; format: ADME, organism-based; set-up: dose 1 mg/kg, route intravenous; conditions: rat, in vivo, iv
[8] = Bioavailability in rat (dose 1 mg/kg p.o.); format: ADME, organism-based; conditions: in vivo, po
[9] = Volume of distribution in rats after the administration of 1 mg/kg i.v. dose; format: ADME, organism-based; set-up: dose 1 mg/kg, route intravenous; conditions: rat, in vivo, iv

T2 sequence (P48039 whole entry): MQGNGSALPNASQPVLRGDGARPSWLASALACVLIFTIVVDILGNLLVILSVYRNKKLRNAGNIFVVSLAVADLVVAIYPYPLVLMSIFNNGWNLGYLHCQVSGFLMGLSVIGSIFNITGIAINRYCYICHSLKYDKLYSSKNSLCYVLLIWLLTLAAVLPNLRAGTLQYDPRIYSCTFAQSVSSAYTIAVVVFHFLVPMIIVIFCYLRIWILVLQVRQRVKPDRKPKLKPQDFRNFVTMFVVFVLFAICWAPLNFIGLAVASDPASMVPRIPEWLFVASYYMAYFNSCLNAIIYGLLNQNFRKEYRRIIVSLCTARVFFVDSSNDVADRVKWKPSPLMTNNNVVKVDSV

Ki [1] [nM] | Ki [2] [nM] | Compound | also measured
95 | 6 | O=C(NCCCc1cccc2oc(CCCCc3ccccc3)cc12)C1CC1 | –
83 | 3.7 | CC(C)C(=O)NCCCc1cccc2oc(CCCCc3ccccc3)cc12 | –
54 | 23 | CC(C)C(=O)NC[C@@H]1CC1c1cccc2oc(CCCCc3ccccc3)cc12 (some centres undefined) | –
7.2 | 11 | CCCC(=O)N[C@H]1CCN(c2cccc3oc(CCCCc4ccccc4)cc23)C1 | –
162 | 105 | CC(C)C(=O)N[C@H]1CCN(c2cccc3oc(CCCCc4ccccc4)cc23)C1 | –
10 | 2.6 | CC(=O)NC[C@@H]1CC1c1cccc2oc(CCCCc3ccccc3)cc12 (some centres undefined) | Activity [3]: 0.97; EC50 [4]: 0.6 nM; EC50 [5]: 21 nM; half-life [6]: 3.8 h; clearance [7]: 27.5 mL/min/kg; bioavailability [8]: 90%; Vd [9]: 0.557 L/kg
2.8 | 2.1 | CCC(=O)NC[C@@H]1CC1c1cccc2oc(CCCCc3ccccc3)cc12 (some centres undefined) | –
127 | 19 | CC(=O)NCCCc1cccc2oc(CCCCc3ccccc3)cc12 | –
10 | 10 | CCCC(=O)NC[C@@H]1CC1c1cccc2oc(CCCCc3ccccc3)cc12 (some centres undefined) | –
14 | 22 | CC(=O)N[C@H]1CCN(c2cccc3oc(CCCCc4ccccc4)cc23)C1 | –
90 | 33 | CCNC(=O)NC[C@@H]1C[C@H]1c1cccc2oc(CCCCc3ccccc3)cc12 | –
– | – | COc1ccc2[nH]cc(CCNC(C)=O)c2c1 [MELATONIN] | bioavailability [8]: 24%
6 | 2.4 | CCC(=O)N[C@H]1CCN(c2cccc3oc(CCCCc4ccccc4)cc23)C1 | –
82 | 16 | CCCC(=O)NCCCc1cccc2oc(CCCCc3ccccc3)cc12 | –
52 | 21 | CCNC(=O)NCCCc1cccc2oc(CCCCc3ccccc3)cc12 | –
98 | 39 | CCNC(=O)N[C@H]1CCN(c2cccc3oc(CCCCc4ccccc4)cc23)C1 | –
60 | 7.5 | CCC(=O)NCCCc1cccc2oc(CCCCc3ccccc3)cc12 | –
33 | 16 | O=C(NC[C@@H]1CC1c1cccc2oc(CCCCc3ccccc3)cc12)C1CC1 (some centres undefined) | –
152 | 42 | O=C(N[C@H]1CCN(c2cccc3oc(CCCCc4ccccc4)cc23)C1)C1CC1 | –
